Test system: Crossbred Suffolk Sheep
Assay: Sheep transforaminal lumbar interbody fusion model
Format: in vivo
Protocol: As in example 1, PTH (i.e. TGplPTH1-34) was tested alone or with granular material. The same materials were used as in example 1, and the preparation of the product followed the same protocol as for example 1, but in this study the concentrations of TGplPTH1-34 ranged from 0.2 mg/mL to 0.7 mg/mL of the fibrin matrix. The treatment was placed only inside the interbody cage. No additional test material was placed around the cage, as in example 1.
A total of 28 Crossbred Suffolk Sheep (Castrated Weathers) with an average weight of 57 kg and age ranging from 3 to 6 years of age were chosen as experimental animals. The animals were divided into 7 groups. One group (the positive control group) was treated with autograft and the remaining groups were treated with a fibrin matrix with or without granular material, containing different concentrations of TGplPTH1-34. Groups were followed for 16 weeks, after which the animals were sacrificed. Animal care and use was conducted in accordance with federal regulations as outlined in the Animal Welfare Act. Surgery, perioperative care, housing, sanitation practices, husbandry, and veterinary care followed the recommendations of the NIH Guide for the Care and Use of Laboratory Animals (HHS, NIH Pub. No. 85-23, 1985). Animal care personnel were qualified, through training and experience, to perform required duties. […]

SMILES: CC[C@H](C)[C@H](NC(=O)[C@H](CCC(=O)O)NC(=O)[C@H](CO)NC(=O)[C@@H](NC(=O)[C@H](CO)NC(=O)[C@H](CCCNC(=N)N)NC(=O)[C@H](CC(N)=O)NC(=O)[C@H](CCCCN)NC(=O)[C@H](Cc1ccc(O)cc1)NC(=O)[C@H](CC(C)C)NC(=O)[C@@H]1CCCN1C(=O)[C@H](CO)NC(=O)[C@@H](NC(=O)[C@H](CCC(N)=O)NC(=O)[C@H](CCC(=O)O)NC(=O)[C@H](CCC(N)=O)NC(=O)[C@@H](N)CC(N)=O)C(C)C)C(C)C)C(=O)N[C@@H](CCC(N)=O)C(=O)N[C@@H](CC(C)C)C(=O)N[C@@H](CCSC)C(=O)N[C@@H](Cc1c[nH]cn1)C(=O)N[C@@H](CC(N)=O)C(=O)N[C@@H](CC(C)C)C(=O)NCC(=O)N[C@@H](CCCCN)C(=O)N[C@@H](Cc1c[nH]cn1)C(=O)N[C@@H](CC(C)C)C(=O)N[C@@H](CC(N)=O)C(=O)N[C@@H](CO)C(=O)N[C@@H](CCSC)C(=O)N[C@@H](CCC(=O)O)C(=O)N[C@@H](CCCNC(=N)N)C(=O)N[C@H](C(=O)N[C@@H](CCC(=O)O)C(=O)N[C@@H](Cc1c[nH]c2ccccc12)C(=O)N[C@@H](CC(C)C)C(=O)N[C@@H](CCCNC(=N)N)C(=O)N[C@@H](CCCCN)C(=O)N[C@@H](CCCCN)C(=O)N[C@@H](CC(C)C)C(=O)N[C@@H](CCC(N)=O)C(=O)N[C@@H](CC(=O)O)C(=O)N[C@H](C(=O)N[C@@H](Cc1c[nH]cn1)C(=O)N[C@@H](CC(N)=O)C(=O)N[C@@H](Cc1ccccc1)C(=O)O)C(C)C)C(C)C [TGplPTH1-34]
- toxicity during the treatment period (any of the doses (0.2-0.7 mg/mL) or formulations, 16 weeks): No toxicity was observed
- histopathologic review (in vivo): no signs of osseous pathology
